Laboratory results as given in patent publication US7155346B2, “Crystal structure of yqeJ and uses thereof” (Wyeth, priority 2001, dated 2006).

Assays:
[1] = target: T1, B. subtilis NaMN AT (yqeJ) (Bacillus subtilis, UniProt P54455); test: Back reaction coupled enzyme assay (hexokinase / glucose-6-phosphate dehydrogenase)
T1 sequence (P54455 with tags, fused parts or gaps): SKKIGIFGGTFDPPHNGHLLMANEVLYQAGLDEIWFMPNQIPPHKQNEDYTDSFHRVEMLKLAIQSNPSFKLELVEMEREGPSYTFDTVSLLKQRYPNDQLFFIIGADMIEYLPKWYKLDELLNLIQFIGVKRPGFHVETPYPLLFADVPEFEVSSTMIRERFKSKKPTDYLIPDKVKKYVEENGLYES
Source text: The back reaction for yqeJ NaMN AT was monitored using the coupled enzyme assay of hexokinase and glucose-6-phosphate dehydrogenase (from yeast). […] The ATP is then used by hexokinase to phosphorylate glucose to give glucose-6-phosphate and ADP. Glucose-6-phosphate is oxidized to 6-phospho-glucono-δ-lactone by glucose-6-phosphate dehydrogenase and NADP is reduced to NADPH. The assay is followed by the absorbance of NADPH at 340 nm. Glucose-6-phosphate dehydrogenase from baker's yeast was used because this enzyme prefers NADP to NAD as a co-substrate. Assay conditions were: 20 mM HEPES pH 7.5, 50 mM MgCl2, 1 mM NaPPi, 10 mM KCl, 5 U hexokinase, 5 U glucose-6-phosphate dehydrogenase, 1 mM glucose, 0.5 mM NADP+.

yqeJ NaMN AT = target: T2, yqeJ NaMN AT (Bacillus subtilis, UniProt P54455); test: Discontinuous HPLC adenylyl transferase assay; assay type: biochemical; conditions: 30 minutes, 37° C.
T2 construct: made in house; host or cells: E. coli BL21(DE3), vector pML208 (modified pET16b)
Protocol: FIGS. 3A, 3B, 3C and 3D provides the results of HPLC analysis of yqeJ NaMN AT adenylyl transferase activity. 0.36 mg/ml yqeJ NaMN AT was incubated with 1 mM ATP and 1 mM NaMN (3A) or 1 mM NMN (3B) for 30 minutes.
Discontinuous HPLC assay. The discontinuous HPLC assay is based upon the assays published by Mehl et al. (12) and Balducci et al. (18). Reaction conditions were 20 mM Hepes, pH 7.4, 10 mM MgCl2, and 0.36 or 0.18 mg/ml yqeJ protein incubated at 37° C. For the forward reaction, the incubations contained 1 mM ATP and 1 mM NaMN or NMN. […] The reactants and products were separated by chromatography on a 3.9×150 mm C18 column (Novapack 5 μm, Waters Inc). Buffer A 100 mM potassium phosphate pH 7.5. Buffer B 100 mM potassium phosphate pH 7.5 in 20% MeOH. The elution conditions were: 0 to 3 min in 100% A, 3.0 to 3.1 min to 100% B, 3.1 to 7 min 100% B. The absorbance of reactants and products was detected at 254 nm.

[2] = target: T1, B. subtilis NaMN AT (yqeJ); test: Continuous coupled assay of the forward reaction (EnzChek pyrophosphate / purine nucleoside phosphorylase); assay type: biochemical; parameters: made in house; host or cells: E. coli BL21(DE3), vector pML208 (modified pET16b)
Source text: Continuous assay. A continuous assay to monitor the reaction in the forward direction was based upon the EnzChek pyrophosphate assay from Molecular Probes (Eugene Oreg.) In this assay, inorganic pyrophosphate produced in the forward reaction of yqeJ is cleaved by inorganic pyrophosphatase to phosphate, which is used by the second coupling enzyme, purine nucleoside phosphorylase (PNP), to convert the chromogenic substrate 2-amino-6-mercapto-7-methylpurine ribonucleoside (MESG) to ribose-1-phosphate and 2-amino-6-mercapto-7methylpurine (E360=11,000 M^−1cm^−1). The reaction conditions were 20 mM Hepes pH 7.5, 10 mM MgCl2, 0.2 mM MESG, 1 U PNP, 0.01 U inorganic pyrophosphatase, and 0.03 μg/mL yqeJ. The reaction volume was 125 μL and was carried out in a 96 well plate at room temperature using spectamax384 plus plate reader recording continuously at 360 nm (Molecular Devices, Sunnyvale Calif.). For the KM determinations, NaMN was varied from 25 to 500 μM with ATP held at 2 mM and ATP was varied from 50 to 1000 μM with NaMN held constant at 1 mM. All kinetic constants were determined from non-linear fits of the experimental data using the enzyme kinetic module of Sigmaplot 7.0 (SPSS, Inc. San Rafael Calif.). The reaction conditions were the same for the KM determinations for NMN except the MgCl2 concentration was increased to 50 mM and the yqeJ concentration was increased to 75 μg/mL due to the lower activity against this substrate. […] The data was fit to a model of substrate inhibition using the equation: v=Vmax/(1+KM/S+S/Ki). […] NMN was varied from 0.5 to 10 mM with ATP held constant at 0.6 mM. The kinetic constants of yqeJ using NMN and ATP substrates also was determined with a second coupled assay system, one coupling NAD production to its reduction by alcohol dehyrogenase. This assay was described by Balducci et al (Balducci et al, 1995a) and has been used to characterize other NMN ATase. Using this assay, very similar values of KM and Vmax for NMN were obtained as was determined with the PNP coupled assay described above. The alcohol dehyrogenase coupled assay was not suitable to assays NaMN as a substrate, presumably because NaAD is not a good substrate for alcohol dehydrogenase.

[3] = substrate: NC(=O)c1ccc[n+]([C@@H]2O[C@H](COP(=O)([O-])OP(=O)(O)OC[C@H]3O[C@@H](n4cnc5c(N)ncnc54)[C@H](O)[C@@H]3O)[C@@H](O)[C@H]2O)c1; test: purified protein, by the assay type; conditions: other: back reaction; at subsaturating concentrations of PPi (1 mM); pH 7.5
Source text: The back reaction for yqeJ NaMN AT was monitored using the coupled enzyme assay of hexokinase and glucose-6-phosphate dehydrogenase (from yeast). […] The ATP is then used by hexokinase to phosphorylate glucose to give glucose-6-phosphate and ADP. Glucose-6-phosphate is oxidized to 6-phospho-glucono-δ-lactone by glucose-6-phosphate dehydrogenase and NADP is reduced to NADPH. The assay is followed by the absorbance of NADPH at 340 nm. Glucose-6-phosphate dehydrogenase from baker's yeast was used because this enzyme prefers NADP to NAD as a co-substrate. Assay conditions were: 20 mM HEPES pH 7.5, 50 mM MgCl2, 1 mM NaPPi, 10 mM KCl, 5 U hexokinase, 5 U glucose-6-phosphate dehydrogenase, 1 mM glucose, 0.5 mM NADP+. […] At high concentration of NaPPi a precipitate was observed.

[4] = substrate: O=P(O)(O)OP(=O)(O)O; test: purified protein, by the assay type; conditions: other: back reaction; at saturating concentrations of NaAD (500 μM); pH 7.5
[5] = substrate: NC(=O)c1ccc[n+]([C@@H]2O[C@H](COP(=O)([O-])O)[C@@H](O)[C@H]2O)c1; test: Continuous coupled assay of the forward reaction (EnzChek pyrophosphate / purine nucleoside phosphorylase); assay type: biochemical, Bacillus subtilis; conditions: other: forward reaction; mononucleotide substrate varied, ATP held constant (2 mM for NaMN, 0.6 mM for NMN); NMN fit to substrate inhibition equation; pH 7.5
Source text: Continuous assay. A continuous assay to monitor the reaction in the forward direction was based upon the EnzChek pyrophosphate assay from Molecular Probes (Eugene Oreg.) In this assay, inorganic pyrophosphate produced in the forward reaction of yqeJ is cleaved by inorganic pyrophosphatase to phosphate, which is used by the second coupling enzyme, purine nucleoside phosphorylase (PNP), to convert the chromogenic substrate 2-amino-6-mercapto-7-methylpurine ribonucleoside (MESG) to ribose-1-phosphate and 2-amino-6-mercapto-7methylpurine (E360=11,000 M^−1cm^−1). The reaction conditions were 20 mM Hepes pH 7.5, 10 mM MgCl2, 0.2 mM MESG, 1 U PNP, 0.01 U inorganic pyrophosphatase, and 0.03 μg/mL yqeJ. The reaction volume was 125 μL and was carried out in a 96 well plate at room temperature using spectamax384 plus plate reader recording continuously at 360 nm (Molecular Devices, Sunnyvale Calif.). […] All kinetic constants were determined from non-linear fits of the experimental data using the enzyme kinetic module of Sigmaplot 7.0 (SPSS, Inc. San Rafael Calif.). […] The kinetic constants of yqeJ using NMN and ATP substrates also was determined with a second coupled assay system, one coupling NAD production to its reduction by alcohol dehyrogenase. […] Using this assay, very similar values of KM and Vmax for NMN were obtained as was determined with the PNP coupled assay described above. […]

[6] = back reaction, at subsaturating concentrations of PPi (1 mM)
[7] = forward reaction: 1 mM ATP and 1 mM substrate, 0.36 mg/ml yqeJ
[8] = forward reaction, at saturating concentrations of NaMN

`Nc1ncnc2c1ncn2[C@@H]1O[C@H](COP(=O)(O)OP(=O)(O)OC[C@H]2O[C@@H]([n+]3cccc(C(=O)O)c3)[C@H](O)[C@@H]2O)[C@@H](O)[C@H]1O` [NAAD, nicotinic acid adenine dinucleotide] was tested, and the Km [1, 6] was 6.8 µM, the Vmax [1, 6] was 2.8 ± 0.2 µmol/min/mg and the “preference (Vmax/KM ratio) for nicotinic acid over nicotinamide containing substrate” value ([1]; reverse reaction, NaAD over NAD) was 2,000 to 1. The “conversion of substrate by yqeJ, detected by HPLC” value (shortened to “conversion of substrate by yqeJ”) (yqeJ NaMN AT; reverse reaction: 1 mM sodium pyrophosphate and 0.5 mM substrate, 0.18 mg/ml yqeJ) was “converted to NaMN and ATP”.

With `O=C(O)c1ccc[n+]([C@@H]2O[C@H](COP(=O)(O)O)[C@@H](O)[C@H]2O)c1` [NaMN, nicotinic acid mononucleotide] the “conversion of substrate by yqeJ” value (yqeJ NaMN AT; [7]) was “formation of a new peak as detected by HPLC that eluted with the NaAD standard”, the “preference (Vmax/KM ratio) for nicotinic acid over nicotinamide containing substrate” value ([2]; forward reaction, NaMN over NMN) was 12,900 to 1 and the Vmax ([2]; forward reaction, mononucleotide substrate varied, ATP held constant) was 11.1 ± 0.7 µmol/min/mg. The Km ([2]; forward reaction, mononucleotide substrate varied, ATP held constant (2 mM for NaMN, 0.6 mM for NMN), NMN fit to substrate inhibition equation) was 43 µM.

With `NC(=O)c1ccc[n+]([C@@H]2O[C@H](COP(=O)([O-])O)[C@@H](O)[C@H]2O)c1` [NMN, Nicotinamide Mononucleotide] the “conversion of substrate by yqeJ” value (yqeJ NaMN AT; [7]) was “a new peak that eluted with NAD” and the Ki [2] was 17 mM.

In the case of `Nc1ncnc2c1ncn2[C@@H]1O[C@H](COP(=O)(O)OP(=O)(O)OP(=O)(O)O)[C@@H](O)[C@H]1O` [ATP], the Km [2, 8] is reported as 135 µM and the Vmax [2, 8] is reported as 10.1 ± 0.4 µmol/min/mg.

B1: B. subtilis NaMN AT (yqeJ) (Bacillus subtilis subsp. subtilis str. 168) (protein)
chain: SKKIGIFGGTFDPPHNGHLLMANEVLYQAGLDEIWFMPNQIPPHKQNEDYTDSFHRVEMLKLAIQSNPSFKLELVEMEREGPSYTFDTVSLLKQRYPNDQLFFIIGADMIEYLPKWYKLDELLNLIQFIGVKRPGFHVETPYPLLFADVPEFEVSSTMIRERFKSKKPTDYLIPDKVKKYVEENGLYES
notes: made in house; host or cells: E. coli BL21(DE3), vector pML208 (modified pET16b)
B1 showed a Km [3] of 1700 ± 200 µM, a Vmax [3] of 0.34 µmol/min/mg and a Km [4] of 4200 ± 600 µM. The Km [5] was 2300 ± 200 µM and the Vmax [5] was 0.054 µmol/min/mg.
